Source: US7962204B2 (priority 2001, dated 2011)

Test system: behaviorally-diagnosed psychiatric conditions (DSM categories)
Design: species or system human
Conditions: in vivo
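Wherever use code of agent in 301.7 Antisocial Personality Disorder is given: N marks novel agent found effective in subject subgroups.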
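Wherever use code of agent in 301.83 Borderline Personality Disorder is given: N marks novel agent found effective in subject subgroups.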
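Wherever use in 307.50 Eating Disorder NOS is given: N marks novel agent found effective in subject subgroups.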
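Wherever use in 307.51 Bulimia Nervosa is given: N marks novel agent found effective in subject subgroups.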

Clc1cccc(Cl)c1N=C1NCCN1 [CLONIDINE]
N: use code of agent in 316 Psychological Factors Affecting Medical Condition, Hypertensive Disorder NOS

N=C(N)NC(=O)Cc1c(Cl)cccc1Cl [[…]]
N: use code of agent in 316 Psychological Factors Affecting Medical Condition, Hypertensive Disorder NOS

N[C@@H](Cc1ccc(O)cc1)C(=O)O [TYROSINE]
N: use in Dementia of the Alzheimer's Type

CN[C@@H](C)Cc1ccccc1 [METHAMPHETAMINE]
N: use code of agent in 294.9 Cognitive Disorder NOS | use code of agent in 296.90 Mood Disorder NOS | use code of agent in 300.4 Dysthymic Disorder | use code of agent in 301.13 Cyclothymic Disorder | use code of agent in 307.1 Anorexia Nervosa | use code of agent in 307.51 Bulimia Nervosa | use code of agent in 312.30 Impulse-Control Disorder NOS | use code of agent in 312.31 Pathological Gambling | use code of agent in 312.39 Trichotillomania | use code of agent in 312.8 Conduct Disorder | use code of agent in 313.81 Oppositional Defiant Disorder | use code of agent in 315.9 Learning Disorder NOS

COCCc1ccc(OCC(O)CNC(C)C)cc1 (stereo not shown) [METOPOLOL]
N: use code of agent in 296.89 Bipolar II Disorder | use code of agent in 296.90 Mood Disorder NOS | use code of agent in 301.13 Cyclothymic Disorder | use code of agent in 301.20 Schizoid Personality Disorder | use code of agent in 301.22 Schizotypal Personality Disorder | use code of agent in 301.4 Obsessive-Compulsive Personality Disorder | use code of agent in 301.50 Histrionic Personality Disorder | use code of agent in 301.6 Dependent Personality Disorder | use code of agent in 301.7 Antisocial Personality Disorder | use code of agent in 301.82 Avoidant Personality Disorder | use code of agent in 301.83 Borderline Personality Disorder | use code of agent in 307.42 Primary Insomnia | use code of agent in 311 Depressive Disorder NOS | use code of agent in 312.34 Intermittent Explosive Disorder | use code of agent in 312.39 Trichotillomania | use code of agent in 316 Psychological Factors Affecting Medical Condition, Hypertensive Disorder NOS | use code of agent in 316 Psychological Factors Affecting Medical Condition, Irritable Bowel Syndrome | use code of agent in 316 Psychological Factors Affecting Medical Condition, Neurodermatitis | use code of agent in Bipolar I Disorder | use code of agent in Major Depressive Disorder, Recurrent | use code of agent in Major Depressive Disorder, Single Episode | use in 294.9 Cognitive Disorder NOS | use in 299.00 Autistic Disorder | use in 299.80 Pervasive Developmental Disorder NOS | use in 300.00 Anxiety Disorder NOS | use in 300.02 Generalized Anxiety Disorder | use in 300.22 Agoraphobia Without History of Panic Disorder | use in 300.23 Social Phobia | use in 300.3 Obsessive-Compulsive Disorder | use in 307.1 Anorexia Nervosa | use in 307.20 Tic Disorder NOS | use in 307.22 Chronic Motor or Vocal Tic Disorder | use in 307.23 Tourette's Disorder | use in 307.50 Eating Disorder NOS | use in 307.51 Bulimia Nervosa | use in 309.21 Separation Anxiety Disorder | use in 309.81 Posttraumatic Stress Disorder | use in 312.30 Impulse-Control Disorder NOS | use in 312.31 Pathological Gambling | use in 312.8 Conduct Disorder | use in 313.81 Oppositional Defiant Disorder | use in 315.9 Learning Disorder NOS | use in Attention-Deficit/Hyperactivity Disorder | use in Panic Disorder | use of the agent in the diagnostic category (C = common use; N = novel use from rEEG features)

Nc1nnc(-c2cccc(Cl)c2Cl)c(N)n1 [LAMOTRIGINE]
N: use in Dementia of the Alzheimer's Type

CC(C)CC(N(C)C)C1(c2ccc(Cl)cc2)CCC1 (stereo not shown) [SILBTRMIN]
N: use code of agent in 312.34 Intermittent Explosive Disorder | use in 307.22 Chronic Motor or Vocal Tic Disorder | use of the agent in the diagnostic category (C = common use; N = novel use from rEEG features)

COC(=O)C(c1ccccc1)C1CCCCN1 (stereo not shown) [METHYLPHENIDATE]
N: use code of agent in 294.9 Cognitive Disorder NOS | use code of agent in 296.90 Mood Disorder NOS | use code of agent in 300.4 Dysthymic Disorder | use code of agent in 301.13 Cyclothymic Disorder | use code of agent in 307.1 Anorexia Nervosa | use code of agent in 307.50 Eating Disorder NOS | use code of agent in 307.51 Bulimia Nervosa | use code of agent in 312.30 Impulse-Control Disorder NOS | use code of agent in 312.31 Pathological Gambling | use code of agent in 312.39 Trichotillomania | use code of agent in 312.8 Conduct Disorder | use code of agent in 313.81 Oppositional Defiant Disorder | use code of agent in 315.9 Learning Disorder NOS

NC12CC3CC(CC(C3)C1)C2 [AMANTADINE]
N: use code of agent in 312.30 Impulse-Control Disorder NOS | use code of agent in 312.8 Conduct Disorder | use code of agent in 313.81 Oppositional Defiant Disorder | use code of agent in 315.9 Learning Disorder NOS | use code of agent in Attention-Deficit/Hyperactivity Disorder

CC(NC(C)(C)C)C(=O)c1cccc(Cl)c1 (stereo not shown) [BUPROPRION (REGULAR TABS)]
N: use code of agent in 301.20 Schizoid Personality Disorder | use code of agent in 301.22 Schizotypal Personality Disorder | use code of agent in 301.4 Obsessive-Compulsive Personality Disorder | use code of agent in 301.50 Histrionic Personality Disorder | use code of agent in 301.6 Dependent Personality Disorder | use code of agent in 301.7 Antisocial Personality Disorder | use code of agent in 301.82 Avoidant Personality Disorder | use code of agent in 301.83 Borderline Personality Disorder | use code of agent in 302.71 Hypoactive Sexual Desire Disorder | use code of agent in 307.42 Primary Insomnia | use code of agent in 311 Depressive Disorder NOS | use code of agent in 316 Psychological Factors Affecting Medical Condition, Atypical Asthma | use code of agent in 316 Psychological Factors Affecting Medical Condition, Neurodermatitis | use code of agent in Bipolar I Disorder | use in 294.8 Amnestic Disorder | use in 294.9 Cognitive Disorder NOS | use in 296.89 Bipolar II Disorder | use in 299.80 Pervasive Developmental Disorder NOS | use in 300.00 Anxiety Disorder NOS | use in 300.02 Generalized Anxiety Disorder | use in 300.22 Agoraphobia Without History of Panic Disorder | use in 300.23 Social Phobia | use in 300.29 Specific Phobia | use in 300.3 Obsessive-Compulsive Disorder | use in 301.13 Cyclothymic Disorder | use in 307.1 Anorexia Nervosa | use in 307.50 Eating Disorder NOS | use in 307.51 Bulimia Nervosa | use in 307.9 Communication Disorder NOS | use in 309.21 Separation Anxiety Disorder | use in 309.81 Posttraumatic Stress Disorder | use in 312.30 Impulse-Control Disorder NOS | use in 312.31 Pathological Gambling | use in 312.34 Intermittent Explosive Disorder | use in 312.39 Trichotillomania | use in 312.8 Conduct Disorder | use in 313.81 Oppositional Defiant Disorder | use in 315.9 Learning Disorder NOS | use in Attention-Deficit/Hyperactivity Disorder | use in Panic Disorder | use of the agent in the diagnostic category (C = common use; N = novel use from rEEG features)

O=C(NCCN1CCOCC1)c1ccc(Cl)cc1 [MOCLOBEMIDE]
N: use code of agent in 302.71 Hypoactive Sexual Desire Disorder | use code of agent in 316 Psychological Factors Affecting Medical Condition, Hypertensive Disorder NOS

NC1=NC(=O)C(c2ccccc2)O1 (stereo not shown) [PEMOLINE]
N: use code of agent in 294.8 Amnestic Disorder | use code of agent in 294.9 Cognitive Disorder NOS | use code of agent in 296.90 Mood Disorder NOS | use code of agent in 300.4 Dysthymic Disorder | use code of agent in 301.13 Cyclothymic Disorder | use code of agent in 307.1 Anorexia Nervosa | use code of agent in 307.50 Eating Disorder NOS | use code of agent in 307.51 Bulimia Nervosa | use code of agent in 312.30 Impulse-Control Disorder NOS | use code of agent in 312.31 Pathological Gambling | use code of agent in 312.8 Conduct Disorder | use code of agent in 313.81 Oppositional Defiant Disorder | use code of agent in 315.9 Learning Disorder NOS | use of agent in DSM category (C/N code)
